Test results: PubChem BioAssay (NCI)
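Method: 48-hour compound exposure of cells in 96-well plates, five concentrations, linear interpolation of endpoints. GI50 marks 50% less growth. Definition used: TGI = concentration required for complete inhibition of growth.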

Assays:
Experiment in all cases: NCI anticancer screen, dose series, 48 h
786-0 renal = system: 786-0 renal
A498 renal = system: A498 renal
A549 NSCLC = system: A549 NSCLC
CAKI-1 renal = system: CAKI-1 renal
HT29 colon = system: HT29 colon
MOLT-4 leukemia = system: MOLT-4 leukemia
NCI-H23 lung = system: NCI-H23 lung
NCI-H522 lung = system: NCI-H522 lung
OVCAR-3 ovarian = system: OVCAR-3 ovarian
OVCAR-4 ovarian = system: OVCAR-4 ovarian

SMILES | GI50 (786-0 renal) [µM] | TGI (786-0 renal) [µM] | GI50 (A498 renal) [µM] | TGI (A498 renal) [µM] | GI50 (A549 NSCLC) [µM] | TGI (A549 NSCLC) [µM] | GI50 (CAKI-1 renal) [µM] | TGI (CAKI-1 renal) [µM] | GI50 (HT29 colon) [µM] | TGI (HT29 colon) [µM] | GI50 (MOLT-4 leukemia) [µM] | TGI (MOLT-4 leukemia) [µM] | GI50 (NCI-H23 lung) [µM] | TGI (NCI-H23 lung) [µM] | GI50 (NCI-H522 lung) [µM] | TGI (NCI-H522 lung) [µM] | GI50 (OVCAR-3 ovarian) [µM] | TGI (OVCAR-3 ovarian) [µM] | GI50 (OVCAR-4 ovarian) [µM] | TGI (OVCAR-4 ovarian) [µM]
O=C1C(Cl)=C(N/N=c2/[nH][nH]/c(=N/NC3=C(Cl)C(=O)c4ccccc4C3=O)c3ccccc23)C(=O)c2ccccc21 | 17.4 | 32.3 | 11.5 | 24 | 21.9 | 52.2 | 17.7 | 41.4 | 24.9 | 53.6 | 4.9 | 34.6 | 17.3 | 36.9 | 2.78 | 10.9 | 15.6 | 36.4 | 12 | 28.5
O=C(CCl)c1ccc([N+](=O)[O-])o1 | 3.32 | 10.9 | 13.6 | 27.5 | 21.1 | 54.4 | 1.73 | 3.24 | 2.76 | 8.99 | 1.15 |  | 4.94 | 26 | 2.81 | > 21.1 | 1.25 | 2.58 | 1.73 | 3.32
C[C@]12CC[C@H]3[C@@H](CCC4=CC(=O)CC[C@@H]43)[C@@H]1CC[C@@H]2OC(=O)N(CCCl)N=O | 0.0723 | 4.82 | 1.9 | 5.51 | 0.393 | 14.8 | 0.51 | 27.6 | 3.7 | 13.7 | 0.716 | > 32.6 | 5.1 | 33.7 | 5.79 | 29 | 7.83 | 21.8 | 10.8 | 31.2
COc1ccc(C(=O)/C=C/c2ccc(Cl)cc2)cc1S(=O)(=O)Nc1c(N)nc(SC)[nH]c1=O | 1.95 | 4.13 | 10.6 | 22.4 | 2.75 | 7.62 | 3.83 | 18.6 | 2.93 | 7.93 | 3.71 | 18.7 | 2.53 | 6.36 | 1.88 | 4.08 | 1.94 | 3.94 | 4.49 | 14.9
COc1cccc(C2=C(c3cn(C)c4ccccc34)C(=O)NC2=O)c1 | 13.4 | > 25 | 3.09 | > 25 | 10.8 | > 25 | 7.9 | > 25 | 7.96 | > 25 | 8.54 | > 25 | 13.9 | > 25 | 6.35 | 25 | 9.05 | > 25 | 9.61 | > 25
CCCN1C(=O)/C(=c2\sc3n(c2=O)C2C(NN=3)N(CC)C(=O)N2CC)c2ccccc21 (centres undefined) | 0.89 | 16.5 | 0.188 | 0.77 | 0.854 | 16.5 | 0.445 | 16.1 | 0.347 | 12.2 | 0.811 | > 100 | 0.792 | 15.8 | 0.356 | 4.51 | 0.289 | 0.8 | 0.933 | 12.8
O=C(O)CS(=O)(=O)C(c1ccccc1)c1ccccc1 |  | > 100 |  | > 100 |  | > 100 |  | > 100 |  | > 100 |  | > 100 |  | > 100 |  | > 100 |  | > 100 |  | > 100
